Test results reported in PubChem BioAssay AID1845207 (Molecular Pharmacology Branch, DTP, NCI, 2023).

System: NCI-H1876 tumor spheroid viability
Test: Anticancer human tumor NCI-H1876 cell line growth inhibition;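 also: spheroids exposed to compounds for seven days before the viability read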;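 as to viability, T/C: percent of DMSO vehicle control viability so 100% = vehicle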
Conditions: spheroids with HUVEC and MSC; for IC50: curve of first compound; for viability, T/C: stronger effect = lower value
Procedure, shortened: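 Complex tumor spheroids combined malignant cells with endothelial cells and mesenchymal stem cells. DNA-damaging drugs and DNA repair inhibitors were tested alone and in combination, at half-log dilutions down from clinical Cmax (top 10 microM if Cmax unknown), 0.25% DMSO final.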

[1] = second compound 0.003 µM, first compound 0.0316 µM
[2] = second compound 0.003 µM, first compound 0.1 µM
[3] = second compound 0.003 µM, first compound 0.316 µM
[4] = second compound 0.003 µM, first compound 1 µM
[5] = second compound 0.003 µM, first compound 3.16 µM
[6] = second compound 0.003 µM, first compound 10 µM
[7] = second compound 0.00949 µM, first compound 0.0316 µM
[8] = second compound 0.00949 µM, first compound 0.1 µM
[9] = second compound 0.00949 µM, first compound 0.316 µM
[10] = second compound 0.00949 µM, first compound 1 µM
[11] = second compound 0.00949 µM, first compound 3.16 µM
[12] = second compound 0.00949 µM, first compound 10 µM
[13] = second compound 0.03 µM, first compound 0.0316 µM
[14] = second compound 0.03 µM, first compound 0.1 µM
[15] = second compound 0.03 µM, first compound 0.316 µM
[16] = second compound 0.03 µM, first compound 1 µM
[17] = second compound 0.03 µM, first compound 3.16 µM
[18] = second compound 0.03 µM, first compound 10 µM
[19] = second compound 0.0949 µM, first compound 0.0316 µM
[20] = second compound 0.0949 µM, first compound 0.1 µM
[21] = second compound 0.0949 µM, first compound 0.316 µM
[22] = second compound 0.0949 µM, first compound 1 µM
[23] = second compound 0.0949 µM, first compound 3.16 µM
[24] = second compound 0.0949 µM, first compound 10 µM
[25] = second compound 0.3 µM, first compound 0.0316 µM
[26] = second compound 0.3 µM, first compound 0.1 µM
[27] = second compound 0.3 µM, first compound 0.316 µM
[28] = second compound 0.3 µM, first compound 1 µM
[29] = second compound 0.3 µM, first compound 3.16 µM
[30] = second compound 0.3 µM, first compound 10 µM

Row | Compound | IC50 (second compound 0.003 µM) [nM] | IC50 (second compound 0.00949 µM) [nM] | IC50 (second compound 0.03 µM) [nM] | IC50 (second compound 0.0949 µM) [nM] | IC50 (second compound 0.3 µM) [nM] | viability, T/C [1] [%] | viability, T/C [2] [%] | viability, T/C [3] [%] | viability, T/C [4] [%] | viability, T/C [5] [%] | viability, T/C [6] [%] | viability, T/C [7] [%] | viability, T/C [8] [%] | viability, T/C [9] [%] | viability, T/C [10] [%] | viability, T/C [11] [%] | viability, T/C [12] [%] | viability, T/C [13] [%] | viability, T/C [14] [%] | viability, T/C [15] [%] | also measured
1 | CC1COCCN1c1cc(-c2ccnn2C)c2ccnc(-c3ccn[nH]3)c2n1 (stereo not given) + CC[C@@]1(O)C(=O)OCc2c1cc1n(c2=O)Cc2cc3c(CN(C)C)c(O)ccc3nc2-1 | < 31.6 | < 31.6 | < 31.6 | < 31.6 | < 31.6 | 16.2 | 9.61 | 6.33 | 5.32 | 2.8 | 3.12 | 6.81 | 5.86 | 5.29 | 3.16 | 2.62 | 4.77 | 3.3 | 3.5 | 3.31 | viability, T/C [16]: 2.97%; viability, T/C [17]: 2.42%; viability, T/C [18]: 2.82%; viability, T/C [19]: 2.58%; viability, T/C [20]: 2.23%; viability, T/C [21]: 2.26%; viability, T/C [22]: 2.14%; viability, T/C [23]: 2.41%; viability, T/C [24]: 2.01%; viability, T/C [25]: 2.18%; viability, T/C [26]: 2.1%; viability, T/C [27]: 2.02%; viability, T/C [28]: 2.7%; viability, T/C [29]: 1.91%; viability, T/C [30]: 1.92%
2 | COc1cc(C)[nH]c(=O)c1CN1CCc2c(Cl)cc(C(OC)C3COC3)c(Cl)c2C1=O (stereo not given) + CC[C@@]1(O)C(=O)OCc2c1cc1n(c2=O)Cc2cc3c(CN(C)C)c(O)ccc3nc2-1 | > 10000 | < 31.6 | < 31.6 | < 31.6 | < 31.6 | 92.3 | 88.3 | 82.6 | 79.3 | 80.6 | 73.7 | 32.3 | 19.7 | 19.2 | 19.4 | 17.3 | 18.6 | 3.49 | 3.03 | 3.24 | viability, T/C [16]: 2.91%; viability, T/C [17]: 3.73%; viability, T/C [18]: 3.6%; viability, T/C [19]: 2.58%; viability, T/C [20]: 2.48%; viability, T/C [21]: 2.58%; viability, T/C [22]: 2.45%; viability, T/C [23]: 2.45%; viability, T/C [24]: 3.12%; viability, T/C [25]: 2.06%; viability, T/C [26]: 2.39%; viability, T/C [27]: 2.29%; viability, T/C [28]: 1.79%; viability, T/C [29]: 2.16%; viability, T/C [30]: 2.06%
3 | [2H]c1nc(C)nc([2H])c1-c1cc(NC[C@@H](C)c2cccc3c(C(=O)NC)ccnc23)ncn1 + CC[C@@]1(O)C(=O)OCc2c1cc1n(c2=O)Cc2cc3c(CN(C)C)c(O)ccc3nc2-1 | > 10000 | < 31.6 | < 31.6 | < 31.6 | < 31.6 | 93.3 | 89.6 | 93.9 | 87.1 | 85.1 | 78.5 | 25.2 | 22.2 | 24 | 21.4 | 19.7 | 17.1 | 3.65 | 4.05 | 3.87 | viability, T/C [16]: 4.16%; viability, T/C [17]: 4.24%; viability, T/C [18]: 4.06%; viability, T/C [19]: 2.96%; viability, T/C [20]: 2.98%; viability, T/C [21]: 2.95%; viability, T/C [22]: 3.01%; viability, T/C [23]: 2.71%; viability, T/C [24]: 3.38%; viability, T/C [25]: 2.42%; viability, T/C [26]: 2.48%; viability, T/C [27]: 2.48%; viability, T/C [28]: 2.74%; viability, T/C [29]: 2.32%; viability, T/C [30]: 2.21%
